The source of these data is patent US12662479B2 (Foghorn Therapeutics Inc., priority 2020, dated 2026).

A value given as a limit tells only on which side of the number the result lay.

In assay [1] the target is T1, HiBit-BRG1 fusion protein (Homo sapiens, UniProt P51532).
T1 construct: expressed in transfected cells
The experiment in a line: HiBiT-BRG1 cell-based degradation assay (Nano-Glo HiBiT Lytic Detection, 24 h). The settings on record: HeLa cells expressing HiBit-BRG1 and LgBit; for DC50: read-out: BRG1 HiBit Degradation IC50; for Dmax: HeLa, top dose 30 μM, read-out: BRG1 HiBit Degradation Maximum measured. The gist of the method:
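Degradation is scaled from DMSO-treated cells (0%) to cells given 2 μM of a known BRM/BRG1 degrader (100%). HeLa cells stably carrying HiBiT-BRG1 plus LgBiT (5000/well) were lysed with Nano-Glo HiBiT detection reagent, shaken 10 min at RT, and luminescence read.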
In general terms: With HiBiT, luminescence reflects the tagged protein that the partner subunit can reach.

Assay [2] has as its target T2, HiBit-BRM fusion protein (Homo sapiens, UniProt P51531).
T2 construct: expressed in transfected cells
The experiment in a line: HiBiT-BRM cell-based degradation assay (Nano-Glo HiBiT Lytic Detection, 24 h). Particulars: HeLa cells expressing HiBiT-BRM; for DC50: read-out: BRM HiBit Degradation IC50; for BRM HiBit Degradation Maximum measured: top dose 30 μM. Summed up: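 Residual HiBiT-BRM in a stable HeLa line was measured by Nano-Glo lytic luminescence after 24 h compound exposure (top final dose 30 μM, 3-fold, 10 points, duplicate). Values are % degradation, scaled between DMSO-treated cells and cells given 2 μM of a known BRM/BRG1 degrader.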

T2 sequence (P51531 whole entry, the tested form may be a part): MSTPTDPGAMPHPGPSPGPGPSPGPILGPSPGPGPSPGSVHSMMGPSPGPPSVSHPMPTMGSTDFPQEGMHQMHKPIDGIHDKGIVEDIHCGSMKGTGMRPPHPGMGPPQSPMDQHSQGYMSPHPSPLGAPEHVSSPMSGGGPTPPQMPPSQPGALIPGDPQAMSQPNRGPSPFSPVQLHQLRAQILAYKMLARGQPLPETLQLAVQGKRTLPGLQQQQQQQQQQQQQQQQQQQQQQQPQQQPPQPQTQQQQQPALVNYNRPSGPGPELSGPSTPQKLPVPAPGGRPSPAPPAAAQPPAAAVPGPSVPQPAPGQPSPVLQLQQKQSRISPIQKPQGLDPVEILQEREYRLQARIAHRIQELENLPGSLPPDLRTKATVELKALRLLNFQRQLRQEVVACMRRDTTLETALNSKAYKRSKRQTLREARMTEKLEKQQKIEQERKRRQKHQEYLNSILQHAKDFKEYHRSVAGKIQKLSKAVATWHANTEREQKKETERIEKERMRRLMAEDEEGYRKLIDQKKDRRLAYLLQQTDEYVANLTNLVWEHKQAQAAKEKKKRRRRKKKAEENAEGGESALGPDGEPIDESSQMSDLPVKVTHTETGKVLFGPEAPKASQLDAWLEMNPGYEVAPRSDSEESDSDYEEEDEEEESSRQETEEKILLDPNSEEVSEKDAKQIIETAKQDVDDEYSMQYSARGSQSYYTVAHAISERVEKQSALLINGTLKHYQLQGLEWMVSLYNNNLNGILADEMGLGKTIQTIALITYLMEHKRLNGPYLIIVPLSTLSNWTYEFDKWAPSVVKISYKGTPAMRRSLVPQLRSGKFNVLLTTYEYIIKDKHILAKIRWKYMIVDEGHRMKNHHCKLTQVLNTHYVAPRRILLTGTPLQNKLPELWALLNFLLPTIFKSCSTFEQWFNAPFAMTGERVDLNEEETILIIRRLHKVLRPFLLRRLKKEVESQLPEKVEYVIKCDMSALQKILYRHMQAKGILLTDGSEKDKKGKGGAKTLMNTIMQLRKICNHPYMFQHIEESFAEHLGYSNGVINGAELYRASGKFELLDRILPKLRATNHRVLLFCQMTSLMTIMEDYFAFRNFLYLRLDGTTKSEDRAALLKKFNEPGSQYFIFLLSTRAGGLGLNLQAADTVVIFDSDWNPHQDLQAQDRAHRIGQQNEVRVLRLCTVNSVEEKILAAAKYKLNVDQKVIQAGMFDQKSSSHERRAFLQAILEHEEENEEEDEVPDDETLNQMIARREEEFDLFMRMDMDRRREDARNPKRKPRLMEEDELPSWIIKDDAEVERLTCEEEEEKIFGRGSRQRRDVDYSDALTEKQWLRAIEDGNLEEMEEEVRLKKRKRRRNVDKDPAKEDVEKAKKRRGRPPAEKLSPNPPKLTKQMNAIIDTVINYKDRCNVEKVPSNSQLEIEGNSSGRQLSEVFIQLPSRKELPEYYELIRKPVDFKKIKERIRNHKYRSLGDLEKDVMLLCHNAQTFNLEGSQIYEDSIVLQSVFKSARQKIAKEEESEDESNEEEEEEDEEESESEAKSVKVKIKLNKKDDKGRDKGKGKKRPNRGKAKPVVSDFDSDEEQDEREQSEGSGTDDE
T1 sequence (P51532 whole entry, the tested form may be a part): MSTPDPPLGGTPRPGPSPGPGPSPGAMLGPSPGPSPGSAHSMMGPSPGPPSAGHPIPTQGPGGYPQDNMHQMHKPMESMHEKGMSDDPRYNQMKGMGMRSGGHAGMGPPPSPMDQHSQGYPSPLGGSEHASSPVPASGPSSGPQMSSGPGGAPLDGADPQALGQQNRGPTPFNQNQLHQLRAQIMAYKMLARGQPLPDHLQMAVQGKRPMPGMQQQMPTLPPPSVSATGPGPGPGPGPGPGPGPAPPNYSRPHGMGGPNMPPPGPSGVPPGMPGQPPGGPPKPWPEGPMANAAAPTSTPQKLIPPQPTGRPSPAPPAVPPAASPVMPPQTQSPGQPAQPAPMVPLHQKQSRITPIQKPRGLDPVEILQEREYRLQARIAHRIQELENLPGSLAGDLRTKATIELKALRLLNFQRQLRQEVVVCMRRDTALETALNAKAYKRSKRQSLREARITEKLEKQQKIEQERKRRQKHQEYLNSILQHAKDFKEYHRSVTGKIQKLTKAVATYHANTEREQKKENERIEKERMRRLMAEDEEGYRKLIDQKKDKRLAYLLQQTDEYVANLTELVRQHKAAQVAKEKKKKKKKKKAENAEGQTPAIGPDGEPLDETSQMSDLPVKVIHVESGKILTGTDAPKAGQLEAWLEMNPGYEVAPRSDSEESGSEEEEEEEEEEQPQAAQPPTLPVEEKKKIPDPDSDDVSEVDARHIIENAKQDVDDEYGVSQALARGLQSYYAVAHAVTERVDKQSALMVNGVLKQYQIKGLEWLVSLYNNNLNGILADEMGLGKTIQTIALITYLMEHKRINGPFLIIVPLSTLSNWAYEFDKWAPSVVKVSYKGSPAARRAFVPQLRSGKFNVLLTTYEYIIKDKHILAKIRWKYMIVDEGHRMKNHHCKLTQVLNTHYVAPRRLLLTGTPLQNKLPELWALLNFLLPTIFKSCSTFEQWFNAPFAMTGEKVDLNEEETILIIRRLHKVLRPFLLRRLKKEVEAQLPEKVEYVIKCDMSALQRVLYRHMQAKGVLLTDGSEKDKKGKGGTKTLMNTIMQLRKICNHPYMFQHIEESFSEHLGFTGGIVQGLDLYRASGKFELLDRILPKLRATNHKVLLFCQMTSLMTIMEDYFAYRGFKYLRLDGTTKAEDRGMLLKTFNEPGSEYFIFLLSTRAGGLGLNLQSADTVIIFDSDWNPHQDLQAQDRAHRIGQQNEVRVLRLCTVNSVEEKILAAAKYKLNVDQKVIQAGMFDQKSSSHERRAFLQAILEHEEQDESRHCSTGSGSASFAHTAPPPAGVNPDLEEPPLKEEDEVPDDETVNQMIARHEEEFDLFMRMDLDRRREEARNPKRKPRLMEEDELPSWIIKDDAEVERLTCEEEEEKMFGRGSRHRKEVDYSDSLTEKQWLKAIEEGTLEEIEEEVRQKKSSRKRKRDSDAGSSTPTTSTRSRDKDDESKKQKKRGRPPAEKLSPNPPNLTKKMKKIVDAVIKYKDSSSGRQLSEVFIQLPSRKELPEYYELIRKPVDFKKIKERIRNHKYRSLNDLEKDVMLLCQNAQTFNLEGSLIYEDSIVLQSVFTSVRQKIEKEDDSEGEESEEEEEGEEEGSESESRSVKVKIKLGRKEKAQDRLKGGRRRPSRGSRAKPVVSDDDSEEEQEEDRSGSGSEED

Take `CS(=O)(=O)n1ccc(C(=O)NCC(=O)Nc2nc(-c3cccc(-c4ccnc(C5(C(=O)N6CC(COc7ccc8c(c7)C(=O)N(C7CCC(=O)NC7=O)C8=O)C6)CC5)c4)c3)cs2)c1` (centres unmarked) [Compound 107, N-(2-((4-(3-(2-(1-(3-(((2-(2,6-dioxopiperidin-3-yl)-1,3-dioxoisoindolin-5-yl)oxy)methyl)azetidine-1-carbonyl)cyclopropyl)pyridin-4-yl)phenyl)thiazol-2-yl)amino)-2-oxoethyl)-1-(methylsulfonyl)-1H-pyrrole-3-carboxamide]: in assay [1], the DC50 was above 10 µM and the Dmax was below 50%. Moreover, in assay [2], the DC50 was above 10 µM and the “BRM HiBit Degradation Maximum measured” value is listed as “C (‘C’ = Maximum degradation <50%)”.
In the case of `Cc1c(C(=O)NCC(=O)Nc2nc(-c3cccc(-c4ccnc(N(C)CC(=O)NCCCCCNc5cccc6c5C(=O)N(C5CCC(=O)NC5=O)C6=O)c4)c3)cs2)cn(S(=O)(=O)C(C)C)c1C` (centres unmarked) [Compound 91, N-[2-[[4-[3-[2-[[2-[5-[[2-(2,6-dioxo-3-piperidyl)-1,3-dioxo-isoindolin-4-yl]amino]pentylamino]-2-oxo-ethyl]-methyl-amino]-4-pyridyl]phenyl]thiazol-2-yl]amino]-2-oxo-ethyl]-1-isopropylsulfonyl-4,5-dimethyl-pyrrole-3-carboxamide], in assay [1], the DC50 was above 10 µM and the Dmax was below 50%. For the same molecule, in assay [2], the DC50 was above 10 µM and the “BRM HiBit Degradation Maximum measured” value is reported as “C (‘C’ = Maximum degradation <50%)”.
In the case of `CN(CC(=O)NCCCCCNc1cccc2c1C(=O)N(C1CCC(=O)NC1=O)C2=O)c1cc(-c2cccc(-c3csc(NC(=O)CNC(=O)c4ccn(S(C)(=O)=O)c4)n3)c2)ccn1` (centres unmarked) [Compound 16, N-(2-((4-(3-(2-((2-((5-((2-(2,6-dioxopiperidin-3-yl)-1,3-dioxoisoindolin-4-yl)amino)pentyl)amino)-2-oxoethyl)(methyl)amino)pyridin-4-yl)phenyl)thiazol-2-yl)amino)-2-oxoethyl)-1-(methylsulfonyl)-1H-pyrrole-3-carboxamide], in assay [1], the DC50 was above 10 µM and the Dmax is below 50%. Besides, in assay [2], the DC50 is above 10 µM and the “BRM HiBit Degradation Maximum measured” value is reported as “C (‘C’ = Maximum degradation <50%)”.
As to `CS(=O)(=O)n1ccc(C(=O)NCC(=O)Nc2nc(-c3cccc(-c4ccn(CC(=O)NCCOCCOCCNc5cccc6c5C(=O)N(C5CCC(=O)NC5=O)C6=O)n4)c3)cs2)c1` (centres unmarked) [Compound 3, N-[2-[[4-[3-[1-[2-[2-[2-[2-[[2-(2,6-dioxo-3-piperidyl)-1,3-dioxoisoindolin-4-yl]amino]ethoxy]ethoxy]ethylamino]-2-oxo-ethyl]pyrazol-3-yl]phenyl]thiazol-2-yl]amino]-2-oxo-ethyl]-1-methylsulfonyl-pyrrole-3-carboxamide], in assay [1], the DC50 was above 10 µM and the Dmax is below 50%. In addition, in assay [2], the DC50 is above 10 µM and the “BRM HiBit Degradation Maximum measured” value is “C (‘C’ = Maximum degradation <50%)”.
Consider `CS(=O)(=O)n1ccc(C(=O)NCC(=O)Nc2nc(-c3cccc(-c4ccnc(C5(C(=O)N6CC(COc7cccc8c7C(=O)N(C7CCC(=O)NC7=O)C8=O)C6)CC5)c4)c3)cs2)c1` (centres unmarked) [Compound 109, N-[4-[3-(2-[1-[3-([[2-(2,6-dioxopiperidin-3-yl)-1,3-dioxoisoindol-4-yl]oxy]methyl)azetidine-1-carbonyl]cyclopropyl]pyridin-4-yl)phenyl]-1,3-thiazol-2-yl]-2-[(1-methanesulfonylpyrrol-3-yl)formamido]acetamide], for which, in assay [1], the DC50 is above 10 µM and the Dmax is below 50%. Besides, in assay [2], the DC50 was above 10 µM and the “BRM HiBit Degradation Maximum measured” value is recorded as “C (‘C’ = Maximum degradation <50%)”.
Regarding `CS(=O)(=O)n1ccc(C(=O)N[C@@H](CCOCCCC(=O)N2CCN(CCCC#Cc3ccc4c(c3)C(=O)N(C3CCC(=O)NC3=O)C4=O)CC2)C(=O)Nc2nc(-c3ccccc3)cs2)c1` (stereo partly drawn) [Compound 263, (2S)-4-[4-(4-[5-[2-(2,6-dioxopiperidin-3-yl)-1,3-dioxoisoindol-5-yl]pent-4-yn-1-yl]piperazin-1-yl)-4-oxobutoxy]-2-[(1-methanesulfonylpyrrol-3-yl)formamido]-N-(4-phenyl-1,3-thiazol-2-yl)butanamide; formic acid], in assay [1], the DC50 is above 10 µM and the Dmax is below 50%. Moreover, in assay [2], the DC50 was above 10 µM and the “BRM HiBit Degradation Maximum measured” value is given as “C (‘C’ = Maximum degradation <50%)”.
As for `CN(CCCCNC(=O)C1(c2cc(-c3cccc(-c4csc(NC(=O)CNC(=O)c5ccn(S(C)(=O)=O)c5)n4)c3)ccn2)CC1)CCCNc1cccc2c1C(=O)N(C1CCC(=O)NC1=O)C2=O` (centres unmarked) [Compound 106, N-(2-((4-(3-(2-(1-((4-((3-((2-(2,6-dioxopiperidin-3-yl)-1,3-dioxoisoindolin-4-yl)amino)propyl)(methyl)amino)butyl)-carbamoyl)cyclopropyl)pyridin-4-yl)phenyl)thiazol-2-yl)amino)-2-oxoethyl)-1-(methylsulfonyl)-1H-pyrrole-3-carboxamide], in assay [1], the DC50 is above 10 µM and the Dmax is below 50%. Also, in assay [2], the DC50 was above 10 µM and the “BRM HiBit Degradation Maximum measured” value is “C (‘C’ = Maximum degradation <50%)”.
On to `CS(=O)(=O)n1ccc(C(=O)N[C@@H](CCCCNC(=O)C2CCN(CCOc3ccc4c(c3)C(=O)N(C3CCC(=O)NC3=O)C4=O)CC2)C(=O)Nc2nc(-c3ccccc3)cs2)c1` (some centres unmarked) [Compound 269], for which, in assay [1], the DC50 is above 10 µM and the Dmax is below 50%. Further, in assay [2], the DC50 is above 10 µM and the “BRM HiBit Degradation Maximum measured” value was “C (‘C’ = Maximum degradation <50%)”.
As for `CS(=O)(=O)n1ccc(C(=O)N[C@@H](COCc2ccc(C(=O)NCCOCCOCCNC(=O)COc3cccc4c3C(=O)N(C3CCC(=O)NC3=O)C4=O)cc2)C(=O)Nc2nc(-c3ccccc3)cs2)c1` (some centres unmarked) [Compound 196], in assay [1], the DC50 was above 10 µM and the Dmax was below 50%. Besides, in assay [2], the DC50 was above 10 µM and the “BRM HiBit Degradation Maximum measured” value was “C (‘C’ = Maximum degradation <50%)”.
With `Cc1ncsc1-c1ccc(CNC(=O)[C@@H]2C[C@@H](O)CN2C(=O)[C@@H](NC(=O)CCCCCCCCCCCCCCCC(=O)NCc2cccc(-c3cccc(-c4csc(NC(=O)CNC(=O)c5ccn(S(C)(=O)=O)c5)n4)c3)c2)C(C)(C)C)cc1` [Compound 124, N1-((S)-1-((2S,4R)-4-hydroxy-2-((4-(4-methylthiazol-5-yl)benzyl)carbamoyl)pyrrolidin-1-yl)-3,3-dimethyl-1-oxobutan-2-yl)-N17-((3′-(2-(2-(1-(methylsulfonyl)-1H-pyrrole-3-carboxamido)acetamido)thiazol-4-yl)-[1,1′-biphenyl]-3-yl)methyl)heptadecanediamide], in assay [1], the DC50 was above 10 µM and the Dmax is below 50%. In addition, in assay [2], the DC50 is above 10 µM and the “BRM HiBit Degradation Maximum measured” value is listed as “C (‘C’ = Maximum degradation <50%)”.
`CS(=O)(=O)n1ccc(C(=O)N[C@@H](CCOCCCC(=O)N2CC(COc3cccc4c3C(=O)N(C3CCC(=O)NC3=O)C4=O)C2)C(=O)Nc2nc(-c3ccccc3)cs2)c1` (stereo partly drawn) [Compound 259, (2S)-4-[4-[3-([[2-(2,6-dioxopiperidin-3-yl)-1,3-dioxoisoindol-4-yl]oxy]methyl)azetidin-1-yl]-4-oxobutoxy]-2-[(1-methanesulfonylpyrrol-3-yl)formamido]-N-(4-phenyl-1,3-thiazol-2-yl)butanamide]: in assay [1], the DC50 is above 10 µM and the Dmax is below 50%. For the same molecule, in assay [2], the DC50 was above 10 µM and the “BRM HiBit Degradation Maximum measured” value is recorded as “C (‘C’ = Maximum degradation <50%)”.
For the molecule `CS(=O)(=O)n1ccc(C(=O)N[C@@H](CCOCCCC(=O)N2CCC(CCCCN3CCN(c4ccc5c(c4)C(=O)N(C4CCC(=O)NC4=O)C5=O)CC3)CC2)C(=O)Nc2nc(-c3ccccc3)cs2)c1` (some centres unmarked) [Compound 257], in assay [1], the DC50 is above 10 µM and the Dmax was below 50%. For the same molecule, in assay [2], the DC50 was above 10 µM and the “BRM HiBit Degradation Maximum measured” value was “C (‘C’ = Maximum degradation <50%)”.
For `Cc1ncsc1-c1ccc(CNC(=O)[C@@H]2C[C@@H](O)CN2C(=O)[C@@H](NC(=O)CCCCCCCCCCC(=O)NCc2ccc(COC[C@H](NC(=O)c3ccn(S(C)(=O)=O)c3)C(=O)Nc3nc(-c4ccccc4)cs3)cc2)C(C)(C)C)cc1` [Compound 209, N-[(2S)-1-[(2S,4R)-4-hydroxy-2-([[4-(4-methyl-1,3-thiazol-5-yl)phenyl]methyl]carbamoyl)pyrrolidin-1-yl]-3,3-dimethyl-1-oxobutan-2-yl]-N′-[(4-[[(2S)-2-[(1-methanesulfonylpyrrol-3-yl)formamido]-2-[(4-phenyl-1,3-thiazol-2-yl)carbamoyl]ethoxy]methyl]phenyl)methyl]dodecanediamide], in assay [1], the DC50 is above 10 µM and the Dmax was below 50%. In assay [2], the DC50 is above 10 µM and the “BRM HiBit Degradation Maximum measured” value is “C (‘C’ = Maximum degradation <50%)”.
On to `CN(CCNC(=O)C1(c2cc(-c3cccc(-c4csc(NC(=O)CNC(=O)c5ccn(S(C)(=O)=O)c5)n4)c3)ccn2)CC1)CCOCCOc1cccc2c1C(=O)N(C1CCC(=O)NC1=O)C2=O` (centres unmarked) [Compound 112, N-(2-((4-(3-(2-(1-((2-((2-(2-((2-(2,6-dioxopiperidin-3-yl)-1,3-dioxoisoindolin-4-yl)oxy)ethoxy)ethyl)(methyl)amino)-ethyl)carbamoyl)cyclopropyl)-pyridin-4-yl)phenyl)thiazol-2-yl)amino)-2-oxoethyl)-1-(methylsulfonyl)-1H-pyrrole-3-carboxamide], for which, in assay [1], the DC50 is above 10 µM and the Dmax was below 50%. Also, in assay [2], the DC50 is above 10 µM and the “BRM HiBit Degradation Maximum measured” value is recorded as “C (‘C’ = Maximum degradation <50%)”.
